In patent US12319664B2, “Herbicidally active 3-phenylisoxazoline-5-carboxamides of cyclopentenylcarboxylic acid derivatives” (Bayer Aktiengesellschaft, priority 2018, dated 2025):

Tests used:
HORMU [1] = test: Pre-emergence herbicidal action against HORMU; assay type: in vivo, Hordeum murinum; conditions: application rate 80 g/ha
From the text: (§1) 1. Pre-emergence herbicidal action against harmful plants and crop plant compatibility Seeds of monocotyledonous and dicotyledonous weed plants and crop plants are placed in plastic or wood-fibre pots and covered with soil. The compounds of the invention, formulated in the form of wettable powders (WP) or as emulsion concentrates (EC), are then applied onto the surface of the covering soil as aqueous suspension or emulsion with addition of 0.5% additive at a water application rate of 600 l/ha (converted). After the treatment, the pots are placed in a greenhouse and kept under good growth conditions for the trial plants. After about 3 weeks, the effect of the preparations is scored visually in comparison with untreated controls as percentages. For example, 100% activity=the plants have died, 0% activity=like control plants. [table]

PHBPU [2] = test: Post-emergence herbicidal action against PHBPU; assay type: in vivo, Pharbitis purpurea; conditions: application rate 80 g/ha, rated visually about 3 weeks after treatment
How it was run: (§2)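 Foliar application at 600 l/ha water, 0.5% additive, WP or EC formulation; plants at one-leaf stage in greenhouse sandy loam pots. Scored visually ~3 weeks post-treatment, 0–100% relative to untreated plants.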

STEME [3] = test: Post-emergence herbicidal action against STEME; assay type: in vivo, Stellaria media; conditions: application rate 80 g/ha, rated visually about 3 weeks after treatment
How it was run: as §2

STEME [4] = test: Pre-emergence herbicidal action against STEME; assay type: in vivo, Stellaria media; conditions: application rate 80 g/ha
From the text: as §1

AMARE [5] = test: Post-emergence herbicidal action against AMARE; assay type: in vivo, Amaranthus retroflexus; conditions: application rate 80 g/ha, rated visually about 3 weeks after treatment
How it was run: as §2

ALOMY [6] = test: Pre-emergence herbicidal action against ALOMY; assay type: in vivo, Alopecurus myosuroides; conditions: application rate 80 g/ha, scored visually after about 3 weeks vs untreated controls (100% = plants have died, 0% = like control plants)
From the text: as §1

AVEFA [7] = test: Pre-emergence herbicidal action against AVEFA; assay type: in vivo, Avena fatua; conditions: application rate 80 g/ha, scored visually after about 3 weeks vs untreated controls (100% = plants have died, 0% = like control plants)
From the text: as §1

HORMU [8] = test: Post-emergence herbicidal action against HORMU; assay type: in vivo, Hordeum murinum; conditions: application rate 80 g/ha
How it was run: as §2

LOLRI [9] = test: Pre-emergence herbicidal action against LOLRI; assay type: in vivo, Lolium rigidum; conditions: application rate 80 g/ha, scored visually after about 3 weeks vs untreated controls (100% = plants have died, 0% = like control plants)
From the text: as §1

ECHCG [10] = test: Post-emergence herbicidal action against ECHCG; assay type: in vivo, Echinochloa crus-galli; conditions: application rate 80 g/ha, rated visually after about 3 weeks
How it was run: as §2

VERPE [11] = test: Post-emergence herbicidal action against VERPE; assay type: in vivo, Veronica persica; conditions: application rate 80 g/ha
How it was run: as §2

AMARE [12] = test: Pre-emergence herbicidal action against AMARE; assay type: in vivo, Amaranthus retroflexus; conditions: application rate 80 g/ha
From the text: as §1

ALOMY [13] = test: Post-emergence herbicidal action against ALOMY; assay type: in vivo, Alopecurus myosuroides; conditions: application rate 80 g/ha, rated visually after about 3 weeks
How it was run: as §2

SETVI [14] = test: Post-emergence herbicidal action against SETVI; assay type: in vivo, Setaria viridis; conditions: application rate 80 g/ha, rated visually after about 3 weeks
How it was run: as §2

VERPE [15] = test: Pre-emergence herbicidal action against VERPE; assay type: in vivo, Veronica persica; conditions: application rate 80 g/ha
From the text: as §1

PHBPU [16] = test: Pre-emergence herbicidal action against PHBPU; assay type: in vivo, Pharbitis purpurea; conditions: application rate 80 g/ha
From the text: as §1

LOLRI [17] = test: Post-emergence herbicidal action against LOLRI; assay type: in vivo, Lolium rigidum; conditions: application rate 80 g/ha, rated visually after about 3 weeks
How it was run: as §2

AVEFA [18] = test: Post-emergence herbicidal action against AVEFA; assay type: in vivo, Avena fatua; conditions: application rate 80 g/ha, rated visually after about 3 weeks
How it was run: as §2

ECHCG [19] = test: Pre-emergence herbicidal action against ECHCG; assay type: in vivo, Echinochloa crus-galli; conditions: application rate 80 g/ha, scored visually after about 3 weeks vs untreated controls (100% = plants have died, 0% = like control plants)
From the text: as §1

SETVI [20] = test: Pre-emergence herbicidal action against SETVI; assay type: in vivo, Setaria viridis; conditions: application rate 80 g/ha, scored visually after about 3 weeks vs untreated controls (100% = plants have died, 0% = like control plants)
From the text: as §1

POLCO [21] = test: Pre-emergence herbicidal action against POLCO; assay type: in vivo, Polygonum convolvulus; conditions: application rate 80 g/ha
From the text: as §1

VIOTR = test: Pre-emergence herbicidal action against VIOTR; assay type: in vivo, Viola tricolor; conditions: application rate 80 g/ha
From the text: as §1

ABUTH = test: Post-emergence herbicidal action against ABUTH; assay type: in vivo, Abutilon theophrasti; conditions: application rate 80 g/ha, rated visually about 3 weeks after treatment
How it was run: as §2

POLCO [22] = test: Post-emergence herbicidal action against POLCO; assay type: in vivo, Polygonum convolvulus; conditions: application rate 80 g/ha, rated visually about 3 weeks after treatment
How it was run: as §2

MATIN = test: Pre-emergence herbicidal action against MATIN; assay type: in vivo, Matricaria inodora; conditions: application rate 80 g/ha, scored visually after about 3 weeks vs untreated controls (100% = plants have died, 0% = like control plants)
From the text: as §1

Structure (SMILES)	Herbicidal action against [%] HORMU (HORMU [1])	Herbicidal action against [%] PHBPU (PHBPU [2])	Herbicidal action against [%] STEME (STEME [3])	Herbicidal action against [%] STEME (STEME [4])	Herbicidal action against [%] AMARE (AMARE [5])	Herbicidal action against [%] ALOMY (ALOMY [6])	Herbicidal action against [%] AVEFA (AVEFA [7])	Herbicidal action against [%] HORMU (HORMU [8])	Herbicidal action against [%] LOLRI (LOLRI [9])	Herbicidal action against [%] ECHCG (ECHCG [10])	Herbicidal action against [%] AMARE (AMARE [12])	Herbicidal action against [%] ALOMY (ALOMY [13])	Herbicidal action against [%] SETVI (SETVI [14])	Herbicidal action against [%] VERPE (VERPE [15])	Herbicidal action against [%] PHBPU (PHBPU [16])	Herbicidal action against [%] LOLRI (LOLRI [17])	Herbicidal action against [%] AVEFA (AVEFA [18])	Herbicidal action against [%] ECHCG (ECHCG [19])	Herbicidal action against [%] SETVI (SETVI [20])	Herbicidal action against [%] POLCO (POLCO [21])	also measured
CC1(C(=O)N[C@H]2CC=C(C(=O)O)C2)CC(c2cccc(F)c2)=NO1 (some centres unmarked) [III-02]	100%	80%	80%	80%	80%	100%	80%	100%	100%	90%	80%	80%	80%	90%	80%	90%	90%				Herbicidal action against [%] VERPE (VERPE [11]): 80%
CC1(C(=O)N[C@H]2C=C[C@@H](C(=O)N3CCCO3)C2)CC(c2cc(F)cc(F)c2)=NO1 (some centres unmarked) [II-06]	100%	80%	80%	90%	80%	90%	90%	80%	100%	80%	100%	90%	80%	90%		90%	80%	90%	100%	80%	Herbicidal action against [%] VIOTR (VIOTR): 100%; Herbicidal action against [%] ABUTH (ABUTH): 80%; Herbicidal action against [%] VERPE (VERPE [11]): 80%; Herbicidal action against [%] POLCO (POLCO [22]): 80%
COC(=O)C1=CC[C@H](NC(=O)C2(C)CC(c3cccc(F)c3)=NO2)C1 (some centres unmarked) [III-04]	100%	90%	80%	90%	80%	100%	90%	100%	100%	80%	90%	90%	80%	90%	90%	90%	100%	90%	100%	100%	Herbicidal action against [%] VIOTR (VIOTR): 90%; Herbicidal action against [%] POLCO (POLCO [22]): 80%
COC(=O)[C@@H]1C=C[C@H](NC(=O)C2(C)CC(c3cccc(F)c3)=NO2)C1 (some centres unmarked) [Example I-004]			80%	100%	80%	100%	90%		90%	80%	80%	80%	80%		90%	80%	90%	100%	100%	100%	Herbicidal action against [%] MATIN (MATIN): 80%
